The target of experiment [1] is T1, glutathione-S-transferase (GST) tagged LXRbeta LBD (ligand binding domain) (Homo sapiens, UniProt P55055).
T1 construct: purchased Invitrogen pv4658.pps
T1 sequence (P55055 222-460 limits assumed): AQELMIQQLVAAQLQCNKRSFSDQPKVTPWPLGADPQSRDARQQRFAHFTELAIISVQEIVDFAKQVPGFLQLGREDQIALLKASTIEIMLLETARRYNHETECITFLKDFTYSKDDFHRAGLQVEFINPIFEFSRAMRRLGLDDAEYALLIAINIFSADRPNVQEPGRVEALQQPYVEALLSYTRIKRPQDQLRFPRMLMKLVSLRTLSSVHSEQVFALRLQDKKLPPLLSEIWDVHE
As to the kind of experiment: LanthaScreen TR-FRET Liver X Receptor Coactivator Assay, co-activator recruitment to LXRbeta LBD. It counts as biochemical. Conditions: for Emax: efficacy at max dose, in relation to reference dual agonist T0901317, read-out: LXR beta Activity @ max dose (%); for EC50: potency (Inflection Point, IP), co-activator recruitment to LXRbeta LBD, in relation to T0901317, read-out: LXR beta IP. Summed up:
(§1)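 Readout is time-resolved FRET between a terbium anti-GST antibody bound to the LBD and a fluorescein-tagged coactivator peptide recruited on ligand binding. Plates were incubated at room temperature before reading. Potency (IP) and efficacy (Emax) are referenced to T0901317.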

In experiment [2] the target is T2, glutathione-S-transferase (GST) tagged LXRalpha LBD (ligand binding domain) (Homo sapiens, UniProt Q13133).
T2 construct: purchased Invitrogen pv4655
T2 sequence (Q13133 209-447 limits assumed): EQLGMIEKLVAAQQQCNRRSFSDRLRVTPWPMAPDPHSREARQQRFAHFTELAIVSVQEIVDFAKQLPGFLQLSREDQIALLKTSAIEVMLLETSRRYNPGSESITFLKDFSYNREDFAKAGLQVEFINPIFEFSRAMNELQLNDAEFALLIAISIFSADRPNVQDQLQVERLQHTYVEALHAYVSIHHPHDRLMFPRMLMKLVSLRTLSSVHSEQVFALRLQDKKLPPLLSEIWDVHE
As to the kind of experiment: LanthaScreen TR-FRET Liver X Receptor Coactivator Assay, co-activator recruitment to LXRalpha LBD. The conditions noted are these: for Emax: efficacy at max dose, in relation to reference dual agonist T0901317, read-out: LXR alpha Activity @ max dose (%); for LXR alpha IP (nM) / EC50: potency (Inflection Point, IP), co-activator recruitment to LXRalpha LBD, in relation to T0901317; for EC50: read-out: LXR alpha IP. In kind it is biochemical. Summed up: as §1

For the compound `CCOc1cccc(C(O)(C(=O)N2CCC(CC3CCN(c4ccc(C(=O)N(C)C)c(Cl)n4)CC3)CC2)C(F)(F)F)c1` (stereo not shown) [Example 7-77, 2-chloro-6-[4-({1-[2-(3-ethoxyphenyl)-3,3,3-trifluoro-2-hydroxypropanoyl]piperidin-4-yl}methyl)piperidin-1-yl]-N,N-dimethylpyridine-3-carboxamide], in experiment [1], the Emax came to 53% and the EC50 amounted to 10 nM. In addition, in experiment [2], the Emax is 6% and the “LXR alpha IP (nM)” value is “NO IP”.
For `CN(C)C(=O)c1ccc(N2CCC(CC3CCN(C(=O)C(O)(c4cccc(C#N)c4)C(F)(F)F)CC3)CC2)nc1Cl` (stereo not shown) [Example 7-78, 2-chloro-6-[4-({1-[2-(3-cyanophenyl)-3,3,3-trifluoro-2-hydroxypropanoyl]piperidin-4-yl}methyl)piperidin-1-yl]-N,N-dimethylpyridine-3-carboxamide], the Emax in experiment [1] was 95%; in experiment [2], 31%. Besides, the EC50 in experiment [1] is 6 nM; in experiment [2], 298 nM.
On the same counts, the results for `COc1cccc([C@@](O)(C(=O)N2CCC(CC3CCN(c4ccc(C(=O)N(C)C)c(Cl)n4)CC3)CC2)C(F)(F)C(F)(F)F)c1` [Example 7-79, 2-chloro-N,N-dimethyl-6-[4-({1-[(2R)-3,3,4,4,4-pentafluoro-2-hydroxy-2-(3-methoxyphenyl)butanoyl]piperidin-4-yl}methyl)piperidin-1-yl]pyridine-3-carboxamide] are 86%, 22%, 9 nM and 429 nM.
With `CN(C)C(=O)c1ccc(N2CCC(CC3CCN(C(=O)[C@](O)(c4ccccc4F)C(F)(F)F)CC3)CC2)nc1Cl` [Example 7-80, 2-chloro-N,N-dimethyl-6-[4-({1-[(2R)-3,3,3-trifluoro-2-(2-fluorophenyl)-2-hydroxypropanoyl]piperidin-4-yl}methyl)piperidin-1-yl]pyridine-3-carboxamide], in experiment [1], the Emax was 85% and the EC50 is 12 nM. Further, in experiment [2], the Emax was found to be 27% and the EC50 amounted to 425 nM.
Regarding `CN(C)C(=O)c1ccc(N2CCC(CC3CCN(C(=O)C(F)(F)c4cccc(Cl)c4)CC3)CC2)nc1Cl` [Example 7-81, 2-chloro-6-[4-({1-[(3-chlorophenyl) (difluoro)acetyl]piperidin-4-yl}methyl)piperidin-1-yl]-N,N-dimethylpyridine-3-carboxamide], in experiment [1], the Emax is 51% and the EC50 came to 206 nM. In experiment [2], the Emax came out at 19% and the “LXR alpha IP (nM)” value was “NO IP”.
As to `CN(C)C(=O)c1ccc(N2CCC(CC3CCN(C(=O)C(O)(c4cc(F)cc(F)c4)C(F)(F)F)CC3)CC2)nc1Cl` (stereo not shown) [Example 7-82, 2-chloro-6-[4-({1-[2-(3,5-difluorophenyl)-3,3,3-trifluoro-2-hydroxypropanoyl]piperidin-4-yl}methyl)piperidin-1-yl]-N,N-dimethylpyridine-3-carboxamide], in experiment [1], the Emax amounted to 111% and the EC50 was found to be 7 nM. For the same compound, in experiment [2], the Emax was 53% and the EC50 came to 106 nM.
For the compound `CN(C)C(=O)c1ccc(N2CCC(CC3CCN(C(=O)C(O)(c4cc(Cl)cc(Cl)c4)C(F)(F)F)CC3)CC2)nc1Cl` (stereo not shown) [Example 7-83, 2-chloro-6-[4-({1-[2-(3,5-dichlorophenyl)-3,3,3-trifluoro-2-hydroxypropanoyl]piperidin-4-yl}methyl)piperidin-1-yl]-N,N-dimethylpyridine-3-carboxamide], in experiment [1], the Emax came to 53% and the EC50 stood at 8 nM. Moreover, in experiment [2], the Emax is 13% and the “LXR alpha IP (nM)” value is reported as “NO IP”.
On the same counts, the results for `CC(C)c1cccc(C(O)(C(=O)N2CCC(CC3CCN(c4ccc(C(=O)N(C)C)c(Cl)n4)CC3)CC2)C(F)(F)F)c1` (stereo not shown) [Example 7-84, 2-chloro-N,N-dimethyl-6-{4-[(1-{3,3,3-trifluoro-2-hydroxy-2-[3-(1-methylethyl)phenyl]propanoyl}piperidin-4-yl)methyl]piperidin-1-yl}pyridine-3-carboxamide] are 54%, 13 nM, 11% and “NO IP”.
For `CN(C)C(=O)c1ccc(N2CCC(CC3CCN(C(=O)C(F)(F)c4ccc(F)cc4)CC3)CC2)nc1Cl` [Example 7-85, 2-chloro-6-[4-({1-[difluoro(4-fluorophenyl)acetyl]piperidin-4-yl}methyl)piperidin-1-yl]-N,N-dimethylpyridine-3-carboxamide], in experiment [1], the Emax was 29% and the EC50 came out at 236 nM. Also, in experiment [2], the Emax is 7% and the “LXR alpha IP (nM)” value is recorded as “NO IP”.
Take `CN(C)C(=O)c1ccc(N2CCC(CC3CCN(C(=O)C(F)(F)c4ccccc4)CC3)CC2)nc1Cl` [Example 7-86, 2-chloro-6-[4-({1-[difluoro(phenyl)acetyl]piperidin-4-yl}methyl)piperidin-1-yl]-N,N-dimethylpyridine-3-carboxamide]: in experiment [1], the Emax is 75% and the EC50 was found to be 165 nM. Further, in experiment [2], the Emax turned out to be 32% and the “LXR alpha IP (nM)” value is recorded as “NO IP”.
In the case of `CN(C)C(=O)c1ccc(N2CCC(CC3CCN(C(=O)[C@](O)(c4cccc(C(F)(F)F)c4)C(F)(F)F)CC3)CC2)nc1Cl` [Example 7-87, 2-chloro-N,N-dimethyl-6-{4-[(1-{(2R)-3,3,3-trifluoro-2-hydroxy-2-[3-(trifluoromethyl)phenyl]propanoyl}piperidin-4-yl)methyl]piperidin-1-yl}pyridine-3-carboxamide], in experiment [1], the Emax was 69% and the EC50 is 7 nM. In experiment [2], the Emax worked out at 23% and the EC50 was 252 nM.
On to `Cc1cccc([C@@](O)(C(=O)N2CCC(CC3CCN(c4ccc(C(=O)N(C)C)c(Cl)n4)CC3)CC2)C(F)(F)F)c1` [Example 7-88, 2-chloro-N,N-dimethyl-6-[4-({1-[(2R)-3,3,3-trifluoro-2-hydroxy-2-(3-methylphenyl)propanoyl]piperidin-4-yl}methyl)piperidin-1-yl]pyridine-3-carboxamide], for which, in experiment [1], the Emax was found to be 52% and the EC50 amounted to 4 nM. In experiment [2], the Emax amounted to 15% and the “LXR alpha IP (nM)” value is “NO IP”.
Turning to `COc1cc(F)cc(C(O)(C(=O)N2CCC(CC3CCN(c4ccc(C(=O)N(C)C)c(Cl)n4)CC3)CC2)C(F)(F)F)c1` (stereo not shown) [Example 7-89, 2-chloro-N,N-dimethyl-6-[4-({1-[3,3,3-trifluoro-2-(3-fluoro-5-methoxyphenyl)-2-hydroxypropanoyl]piperidin-4-yl}methyl)piperidin-1-yl]pyridine-3-carboxamide], in experiment [1], the Emax amounted to 86% and the EC50 was found to be 6 nM. Further, in experiment [2], the Emax is 19% and the EC50 was found to be 112 nM.
For the compound `CCc1cccc(C(O)(C(=O)N2CCC(CC3CCN(c4ccc(C(=O)N(C)C)c(Cl)n4)CC3)CC2)C(F)(F)F)c1` (stereo not shown) [Example 7-90, 2-chloro-6-[4-({1-[2-(3-ethylphenyl)-3,3,3-trifluoro-2-hydroxypropanoyl]piperidin-4-yl}methyl)piperidin-1-yl]-N,N-dimethylpyridine-3-carboxamide], in experiment [1], the Emax came to 41% and the EC50 was determined as 6 nM. In experiment [2], the Emax was determined as 10% and the “LXR alpha IP (nM)” value is “NO IP”.
For `CC(C)Oc1cccc([C@@](O)(C(=O)N2CCC(CC3CCN(c4ccc(C(=O)N(C)C)c(Cl)n4)CC3)CC2)C(F)(F)F)c1` [Example 7-91, 2-chloro-N,N-dimethyl-6-{4-[(1-{(2R)-3,3,3-trifluoro-2-hydroxy-2-[3-(1-methylethoxy)phenyl]propanoyl}piperidin-4-yl)methyl]piperidin-1-yl}pyridine-3-carboxamide], in that order: 58%, 8 nM, 14% and “NO IP”.
In the case of `CCOc1cccc([C@@](O)(C(=O)N2CCC(CC3CCN(c4ccc(C(=O)N(C)C)c(Cl)n4)CC3)CC2)C(F)(F)F)c1` [Example 7-92, 2-chloro-6-[4-({1-[(2R)-2-(3-ethoxyphenyl)-3,3,3-trifluoro-2-hydroxypropanoyl]piperidin-4-yl}methyl)piperidin-1-yl]-N,N-dimethylpyridine-3-carboxamide], in experiment [1], the Emax came to 51% and the EC50 came out at 6 nM. In experiment [2], the Emax stood at 8% and the “LXR alpha IP (nM)” value is listed as “NO IP”.

Source of the values: patent publication US10752587B2, “Homobispiperidinyl derivatives as liver X receptor beta agonists, compositions and their use” (Merck Sharp & Dohme Corp., priority 2015, dated 2020).
